Test results as given in article PMC3072440 (Chemical research in toxicology, 2010).
Read-outs that look alike come from different tables or passages of the source.

Columns and labels:
human P450 1A1 = target: T1, human P450 1A1 (Homo sapiens, UniProt P04798); assay: Inhibition of P450 1A1-dependent EROD activity; format: biochemical
T1 sequence (P04798 1-512): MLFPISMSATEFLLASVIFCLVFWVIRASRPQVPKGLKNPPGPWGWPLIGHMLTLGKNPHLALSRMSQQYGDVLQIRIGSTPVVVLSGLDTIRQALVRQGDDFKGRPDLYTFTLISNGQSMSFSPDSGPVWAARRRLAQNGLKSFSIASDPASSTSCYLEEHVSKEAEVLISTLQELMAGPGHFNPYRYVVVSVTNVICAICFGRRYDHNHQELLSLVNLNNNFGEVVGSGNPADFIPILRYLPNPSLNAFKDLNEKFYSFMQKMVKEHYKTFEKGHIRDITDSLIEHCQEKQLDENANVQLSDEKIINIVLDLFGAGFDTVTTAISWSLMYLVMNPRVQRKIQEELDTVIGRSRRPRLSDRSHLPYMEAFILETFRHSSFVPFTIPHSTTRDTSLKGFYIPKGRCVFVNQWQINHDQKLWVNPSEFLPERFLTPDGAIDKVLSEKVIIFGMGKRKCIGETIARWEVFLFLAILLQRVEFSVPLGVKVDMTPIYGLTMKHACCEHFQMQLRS

human P450 3A4 [1] = target: T2, human P450 3A4 (Homo sapiens, UniProt P08684); assay: Inhibition of P450 3A4-dependent midazolam 4-hydroxylation
T2 sequence (P08684 whole entry): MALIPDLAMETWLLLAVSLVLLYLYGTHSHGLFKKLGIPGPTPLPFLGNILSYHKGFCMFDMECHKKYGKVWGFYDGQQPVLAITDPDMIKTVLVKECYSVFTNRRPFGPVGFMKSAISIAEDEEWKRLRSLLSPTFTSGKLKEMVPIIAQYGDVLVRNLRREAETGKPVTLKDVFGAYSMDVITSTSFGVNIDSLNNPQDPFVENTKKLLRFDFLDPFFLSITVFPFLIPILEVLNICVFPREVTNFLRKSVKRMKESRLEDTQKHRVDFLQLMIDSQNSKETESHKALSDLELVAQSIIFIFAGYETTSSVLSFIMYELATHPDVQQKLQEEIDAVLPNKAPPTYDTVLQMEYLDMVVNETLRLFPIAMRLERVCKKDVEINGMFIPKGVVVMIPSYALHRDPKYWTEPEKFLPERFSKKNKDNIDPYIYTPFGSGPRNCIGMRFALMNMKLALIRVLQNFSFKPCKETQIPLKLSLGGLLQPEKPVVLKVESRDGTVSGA

human P450 2C9 [2] = target: T3, human P450 2C9 (Homo sapiens, UniProt P11712); assay: Inhibition of P450 2C9-dependent flurbiprofen 4’-hydroxylation
T3 sequence (P11712 whole entry): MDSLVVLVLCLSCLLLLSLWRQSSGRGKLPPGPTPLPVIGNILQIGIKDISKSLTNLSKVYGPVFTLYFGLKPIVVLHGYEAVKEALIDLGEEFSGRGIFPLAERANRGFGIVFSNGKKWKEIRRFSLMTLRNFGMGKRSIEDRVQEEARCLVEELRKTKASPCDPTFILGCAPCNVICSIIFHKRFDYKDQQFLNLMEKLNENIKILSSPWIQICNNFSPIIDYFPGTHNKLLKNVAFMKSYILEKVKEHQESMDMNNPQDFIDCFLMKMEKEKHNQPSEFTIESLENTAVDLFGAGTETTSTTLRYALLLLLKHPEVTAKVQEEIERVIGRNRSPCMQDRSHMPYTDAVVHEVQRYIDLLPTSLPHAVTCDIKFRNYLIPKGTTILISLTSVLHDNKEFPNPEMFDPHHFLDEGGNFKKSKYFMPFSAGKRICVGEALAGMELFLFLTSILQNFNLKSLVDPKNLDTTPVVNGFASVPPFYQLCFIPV

human P450 1B1 [3] = target: T4, human P450 1B1 (Homo sapiens, UniProt Q16678); assay: Spectral binding titration with purified P450 1B1
T4 sequence (Q16678 1-543): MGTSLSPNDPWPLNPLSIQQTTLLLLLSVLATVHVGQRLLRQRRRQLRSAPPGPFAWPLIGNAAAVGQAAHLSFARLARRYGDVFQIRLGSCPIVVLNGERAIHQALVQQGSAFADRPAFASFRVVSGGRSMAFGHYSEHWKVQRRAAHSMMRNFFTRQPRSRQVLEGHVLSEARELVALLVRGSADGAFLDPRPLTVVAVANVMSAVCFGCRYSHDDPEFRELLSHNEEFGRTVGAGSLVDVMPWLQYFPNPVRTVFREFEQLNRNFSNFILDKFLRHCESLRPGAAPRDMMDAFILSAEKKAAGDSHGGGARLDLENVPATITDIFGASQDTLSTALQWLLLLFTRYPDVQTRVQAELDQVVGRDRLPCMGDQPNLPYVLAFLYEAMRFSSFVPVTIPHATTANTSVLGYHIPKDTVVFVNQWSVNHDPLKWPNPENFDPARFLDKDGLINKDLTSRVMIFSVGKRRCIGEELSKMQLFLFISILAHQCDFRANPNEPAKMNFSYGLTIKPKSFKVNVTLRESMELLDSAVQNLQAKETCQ

human P450 3A4 [4] = target: T2, human P450 3A4; assay: Spectral binding titration with purified P450 3A4; details: decreases in α and β bands monitored; up to 100 µM
human P450 1B1 [5] = target: T4, human P450 1B1; assay: Inhibition of P450 1B1-dependent EROD activity; format: biochemical
human P450 1A2 [6] = target: T5, human P450 1A2 (Homo sapiens, UniProt P05177)
T5 sequence (P05177 1-516): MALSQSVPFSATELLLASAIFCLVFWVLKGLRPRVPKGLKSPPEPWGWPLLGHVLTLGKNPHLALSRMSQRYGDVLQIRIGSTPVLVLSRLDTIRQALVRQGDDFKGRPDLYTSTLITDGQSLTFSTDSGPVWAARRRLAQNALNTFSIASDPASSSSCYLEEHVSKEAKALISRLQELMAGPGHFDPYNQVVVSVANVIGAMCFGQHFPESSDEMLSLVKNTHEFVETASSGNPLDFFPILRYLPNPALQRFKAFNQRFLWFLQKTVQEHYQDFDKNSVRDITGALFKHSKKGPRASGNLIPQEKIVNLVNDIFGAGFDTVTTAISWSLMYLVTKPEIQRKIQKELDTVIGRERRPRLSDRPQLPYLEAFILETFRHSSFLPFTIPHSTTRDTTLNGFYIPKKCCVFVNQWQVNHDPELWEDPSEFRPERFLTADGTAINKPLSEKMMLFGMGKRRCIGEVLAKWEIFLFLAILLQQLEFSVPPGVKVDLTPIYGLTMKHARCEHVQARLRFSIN

human P450 2C9 [7] = target: T3, human P450 2C9
human P450 1A2 [8] = target: T5, human P450 1A2; assay: Inhibition of P450 1A2-dependent EROD activity
human P450 2C9 [9] = target: T3, human P450 2C9; assay: Spectral binding titration with purified P450 2C9; details: concentrations up to 100 µM; results not shown
human P450 3A4 [10] = target: T2, human P450 3A4; assay: Effect on P450 3A4-catalyzed midazolam 1’-hydroxylation

COc1ccccc1-c1cc(=O)c2c(O)cc(O)cc2o1 [2’M57DHF, 2’-methoxy-5,7-dihydroxyflavone]
IC50 (human P450 1A1): 1400 nM
IC50 (human P450 3A4 [1]): 2000 nM
inhibition of P450 2C9 flurbiprofen 4’-hydroxylation, in words (human P450 2C9 [2]): strong inhibitors

COc1ccccc1-c1cc(=O)c2ccc(O)c(O)c2o1 [2’M78DHF, 2’-methoxy-7,8-dihydroxyflavone]
binding spectra with P450 1B1, in words (human P450 1B1 [3]): no binding spectra
binding spectra with P450 1B1, in words (human P450 1B1 [3]; listed as 2M78DHF): did not show spectra

COc1ccccc1-c1cc(=O)c2ccccc2o1 [2’MF, 2’-Methoxyflavone]
spectral change / Type I binding spectra with P450 3A4, in words (human P450 3A4 [4]): induced spectral changes
inhibition of P450 3A4 midazolam 4-hydroxylation, in words (human P450 3A4 [1]): not very effective inhibitors

COc1ccc(-c2cc(=O)c3c(O)cc(O)cc3o2)cc1OC [3’4’DM57DHF, 3’4’-dimethoxy-5,7-dihydroxyflavone]
IC50 (human P450 1B1 [5]; read-out: inhibition of substrate oxidation by P450s (IC50), P450 1B1, 7-ethoxyresorufin O-deethylation, 2.5 µM substrate, bacterial membranes, means ± SD): 19 ± 3 nM
IC50 (human P450 1A1): 72 ± 11 nM
IC50 (human P450 1A2 [6]): 11 ± 3 nM
IC50 (human P450 2C9 [7]): 880 ± 210 nM
inhibition of P450 2C9 flurbiprofen 4’-hydroxylation, in words (human P450 2C9 [7]): strong inhibitors
IC50 of P450 3A4 fold higher than that for P450 1B1 (human P450 3A4 [1]; ratio IC50 3A4 / IC50 1B1): 2000 fold
IC50 of P450 3A4 fold higher than that of P450 2C9 (human P450 3A4 [1]; ratio IC50 3A4 / IC50 2C9): 43 fold

COc1ccc(-c2cc(=O)c3ccc(O)c(O)c3o2)cc1OC [3’4’DM78DHF, 3’,4’-dimethoxy-7,8-dihydroxyflavone]
IC50 (human P450 1B1 [5]): > 100000 nM
IC50 (human P450 1A1): 41000 ± 10000 nM
IC50 (human P450 1A2 [8]): > 100000 nM
inhibition of P450 1A2 at 100 µM, in words (human P450 1A2 [8]; 100 µM concentration): did not inhibit
IC50 (human P450 3A4 [1]): > 100000 nM
inhibition of P450 3A4 at 100 µM, in words (human P450 3A4 [1]; 100 µM concentration): not inhibitory
IC50 (human P450 2C9 [2]): 25000 ± 4200 nM

COc1ccc(-c2cc(=O)c3ccccc3o2)cc1OC [3’4’DMF, 3’,4’-dimethoxyflavone]
inhibition of P450 3A4 midazolam 4-hydroxylation, in words (human P450 3A4 [1]): not very effective inhibitors

COc1cccc(-c2cc(=O)c3ccccc3o2)c1 [3’MF, 3’-methoxyflavone]
spectral change / Type I binding spectra with P450 3A4, in words (human P450 3A4 [4]): induced spectral changes
inhibition of P450 3A4 midazolam 4-hydroxylation, in words (human P450 3A4 [1]): not very effective inhibitors

C[C@@H]1O[C@@H](O[C@H]2[C@H](Oc3cc(O)c4c(c3)O[C@H](c3ccc(O)cc3)CC4=O)O[C@H](CO)[C@@H](O)[C@@H]2O)[C@H](O)[C@H](O)[C@H]1O [4’57THFvaG, 4’,5,7-trihydroxyflavanone glycoside]
inhibition of P450 1B1 EROD, in words (human P450 1B1 [5]): weak inhibitor

COc1ccc(-c2cc(=O)c3c(O)cc(O)cc3o2)cc1 [4’M57DHF, 4’-methoxy-5,7-dihydroxyflavone]
spectral change / Type I binding spectra with P450 3A4, in words (human P450 3A4 [4]): induced spectral changes
spectral changes with P450 2C9, in words (human P450 2C9 [9]): did not induce spectral changes
effect on formation of 1’-hydroxymidazolam by P450 3A4, in words (human P450 3A4 [10]): slightly activated
inhibition of P450 3A4 midazolam 4-hydroxylation, in words (human P450 3A4 [1]): significantly inhibited
IC50 (human P450 2C9 [2]): 650 ± 130 nM
inhibition of P450 2C9 flurbiprofen 4’-hydroxylation, in words (human P450 2C9 [2]): strong inhibitors

COc1ccc(-c2coc3cc(O)cc(O)c3c2=O)cc1 [4’M57DHIsoF, 4’-methoxy-5,7-dihydroxyisoflavone]
IC50 (human P450 1B1 [5]): 700 nM
pattern of inhibition of P450 1B1 (kinetic analysis) (human P450 1B1 [5]; 357THF 0.02 µM, 4’57THFva 8.0 µM, 4’M57DHisoF 8.0 µM, results not shown): mixed-type
spectral changes with P450 2C9, in words (human P450 2C9 [9]): did not induce spectral changes

COc1ccc(-c2cc(=O)c3ccccc3o2)cc1 [4’MF, 4’-methoxyflavone]
spectral change / Type I binding spectra with P450 3A4, in words (human P450 3A4 [4]): induced spectral changes
inhibition of P450 3A4 midazolam 4-hydroxylation, in words (human P450 3A4 [1]): not very effective inhibitors

O=c1cc(-c2ccccc2)oc2cccc(O)c12 [5HF, 5-hydroxyflavone]
IC50 (human P450 3A4 [1]): > 100000 nM
